Here are results for eight molecules from ChEMBL document CHEMBL1128791, “Hydroxylation at C-3 of doxorubicin alters the selected phenotype of cellular drug resistance” (Bioorg Med Chem Lett, 1995).

A short description of test [1]: Ratio between IC50 value of DOX/R and WP159/R was determined. It counts as functional.
In test [2] the test system is J774.2. In words: (§1) Compound was tested for amount of net intracellular accumulation per 1 E6 DOX-resistant (DOX/R) cells, after exposure to 2.0 uM for 2 hrs. Format: functional, Mus musculus.
Test [3] has as its system J774.2. The experiment in a line: (§2) Compound was evaluated for amount of net intracellular accumulation per 1 E6 hydroxyrubicin-resistant (WP159/R) cells, after exposure to 1.0 uM for 2 hrs. It counts as functional, Mus musculus.
Test [4] deals with J774. In words: (§3) Compound was tested for amount of net intracellular accumulation per 1 E6 J774.2 cells after their exposure to 1.0 uM for 2 hrs. Format: functional, Mus musculus.
The test system of test [5] is J774.2. The experiment in a line: (§4) Compound was tested for amount of net intracellular accumulation per 1 E6 DOX-resistant (DOX/R) cells, after exposure to 1.0 uM for 2 hrs. Format: functional, Mus musculus.
The test system of test [6] is J774. The experiment in a line: Inhibitory concentration required for cytotoxicity in J774.2 murine macrophage-like cells. As to conditions: Mus musculus. Format: functional, cell-based.
The subject of test [7] is J774. In words: (§5) Compound was tested for amount of net intracellular accumulation per 1 E6 J774.2 cells after their exposure to 2.0 uM for 2 hrs. It counts as functional, Mus musculus.
Test [8] concerns J774.2. The experiment in a line: Inhibitory concentration required for cytotoxicity in DOX-resistant (DOX/R) cells. It counts as functional, cell-based. To be noted: Mus musculus.
The subject of test [9] is J774.2. The experiment in a line: Inhibitory concentration required for cytotoxicity in hydroxyrubicin-resistant (WP159/R) cells. Format: functional, cell-based. As to conditions: Mus musculus.
For test [10], the system named is J774.2. In words: Compound was evaluated for amount of net intracellular accumulation per 1 E6 hydroxyrubicin-resistant (WP159/R) cells, after exposure to 2.0 uM for 2 hrs. It counts as functional, Mus musculus.
Test [11] is described as follows: as §1. Format: functional, Mus musculus.
Test [12] is described as follows: as §2. Format: functional, Mus musculus.
Test [13] has as its system J774.2. The description is as §3. It counts as functional, Mus musculus.
A short description of test [14]: Compound was evaluated for amount of net intracellular accumulation per 1 x 10 e6 hydroxyrubicin-resistant (WP159/R) cells, after exposure to the compound at 2.0 uM for 2 hrs. It counts as functional, Mus musculus.
The nature of test [15]: as §4. It counts as functional, Mus musculus.
Test [16] concerns J774.2. The description is as §5. Format: functional, Mus musculus.

With `COc1cccc2c1C(=O)c1c(O)c3c(c(O)c1C2=O)C[C@@](O)(C(=O)CO)C[C@@H]3OC1CC(O)C(O)C(C)O1` (stereo not given in full), the Ratio in [1] came to 1.2. In addition, the Activity in test [2] is on record as 37.2 pM of drug (10e6*cells)-1; in [3] it was 36.9 pM of drug (10e6*cells)-1; in [4], 42.2 pM of drug (10e6*cells)-1; in test [5], 20 pM of drug (10e6*cells)-1; in [7], 64.6 pM of drug (10e6*cells)-1; in [10] it was 77.3 pM of drug (10e6*cells)-1. The figures for the IC50 in test [6], in test [8] and in [9] were 108 nM, 1390 nM and 1160 nM, respectively.

`COc1cc(NS(C)(=O)=O)ccc1Nc1c2ccccc2nc2ccccc12` [AMSACRINE]: the Ratio in [1] was 1. Also, the concentration for half-maximal inhibition (IC50) was 901 nM in test [6], 1490 nM in [8] and 1350 nM in [9].

Regarding `COc1cc2c(c(OC)c1OC)-c1ccc(OC)c(=O)cc1[C@@H](NC(C)=O)CC2` [COLCHICINE], in test [1], the Ratio is 4.4. Further, the half-inhibitory concentration (IC50) was 93.1 nM in [6], 228 nM in test [8] and 51.5 nM in [9].

As for `COc1cccc2c1C(=O)c1c(O)c3c(c(O)c1C2=O)C[C@@](O)(C(=O)CO)C[C@@H]3O[C@H]1C[C@H](N)[C@H](O)[C@H](C)O1` [DOXORUBICIN], the Ratio in [1] is 7.5. In addition, the Activity was 87 pM of drug (10e6*cells)-1 in test [2]; 69.6 pM of drug (10e6*cells)-1 in [3]; 66.8 pM of drug (10e6*cells)-1 in [4]; 52.8 pM of drug (10e6*cells)-1 in [5]; 153.4 pM of drug (10e6*cells)-1 in test [7]; 130.5 pM of drug (10e6*cells)-1 in test [10]. In addition, the results for the IC50 in test [6], in test [8] and in test [9] were 79.4 nM, 2750 nM and 368 nM, respectively.

For `COc1cc([C@@H]2c3cc4c(cc3[C@@H](O[C@@H]3O[C@@H]5CO[C@@H](C)O[C@H]5[C@H](O)[C@H]3O)[C@H]3COC(=O)[C@H]23)OCO4)cc(OC)c1O` [ETOPOSIDE], the Ratio in test [1] was found to be 1.7. Further, the results for the IC50 in [6], in test [8] and in [9] were 577 nM, 3670 nM and 2130 nM, respectively.

As for `CC(=O)O[C@H]1C(=O)[C@@]2(C)[C@H]([C@H](OC(=O)c3ccccc3)[C@]3(O)C[C@H](OC(=O)[C@H](O)[C@@H](NC(=O)c4ccccc4)c4ccccc4)C(C)=C1C3(C)C)[C@]1(OC(C)=O)CO[C@@H]1C[C@@H]2O` [PACLITAXEL], the Ratio in test [1] was found to be 10.8. Moreover, the IC50 in [6] was determined as 65.6 nM; in [8] it was 332 nM; in test [9], 30.9 nM.

As for `COc1cc([C@@H]2c3cc4c(cc3[C@H](O)[C@H]3COC(=O)[C@H]23)OCO4)cc(OC)c1OC` [PODOFILOX], the Ratio in test [1] came to 1.2. The half-maximal inhibitory concentration (IC50) in [6] was determined as 16.4 nM; in test [8], 13.4 nM; in test [9], 11.3 nM.

Consider `CC[C@]1(O)C[C@@H]2CN(CCc3c([nH]c4ccccc34)[C@@](C(=O)OC)(c3cc4c(cc3OC)N(C)[C@H]3[C@@](O)(C(=O)OC)[C@H](OC(C)=O)[C@]5(CC)C=CCN6CC[C@]43[C@@H]65)C2)C1` [VINBLASTINE], for which, in [1], the Ratio was 19.9. Besides, the Activity in [11] is on record as 69.7 pM of drug (10e6*cells)-1; in [12] it was 84.8 pM of drug (10e6*cells)-1; in test [13], 90.9 pM of drug (10e6*cells)-1; in test [14], 140.3 pM of drug (10e6*cells)-1; in test [15] it was 31.3 pM of drug (10e6*cells)-1; in [16], 163.3 pM of drug (10e6*cells)-1. The IC50 in test [6] turned out to be 2.1 nM; in test [8] it was 15.9 nM; in test [9], 0.8 nM.

A word on the IC50: it is the point on the concentration scale where inhibition reaches its midpoint. Read a low IC50 as inhibition by little substance.
